From US20070287691A1, “METHOD FOR ACTIVATING THE LIPID CATABOLIC METABOLISM IN ENTERIC EPITHELIUM AND IMPROVING THE LIPID METABOLISM IN ENTERIC EPITHELIUM” (KAO CORPORATION, priority 2001, published 2007)

Test system: rat small-intestine epithelial cell strain, IEC-6
Test: Inhibition test of triacylglycerol synthesis in the small intestine epithelium (Nile Red, FACS)
Assay type: cell-based
Settings: relative value, linoleic acid = 100; 200 μM, 24 hours
Procedure: Using FCS (fetal calf serum)-free, Dulbecco's modified Eagle's medium (D-MEM) with 5% FBS and 70 μg/mL kanamycin added therein, a rat small-intestine epithelial cell strain, IEC-6, was incubated under 5% CO2 at 37° C. […] Twenty-four hours later, the individual cultures were washed with PBS and subsequent to treatment with tripsin, were peeled off from Culture dishes. Those cultures were separately suspended in portions of HBSS which contained Nile Red (100 ng/mL). Subsequent to incubation at room temperature for […], FACS analysis was conducted. From average fluorescence intensities, synthesized quantities of triacylglycerols were measured.

SMILES | Fluorescence intensity (synthesized quantity of triacylglycerols)
CCCCC/C=C\C/C=C\C/C=C\C/C=C\CCCC(=O)O [Arachidonic acid] | 87
CC/C=C\C/C=C\C/C=C\C/C=C\C/C=C\C/C=C\CCC(=O)O [Docosahexaenoic acid] | 49
CC/C=C\C/C=C\C/C=C\C/C=C\C/C=C\CCCC(=O)O [Eicosapentaenoic acid] | 52
CCCCC/C=C\C/C=C\CCCCCCCC(=O)O [Linoleic acid] | 100
CCCCCCCC/C=C\CCCCCCCC(=O)O [Oleic acid] | 191
CC/C=C\C/C=C\C/C=C\CCCCCCCC(=O)O [α-Linolenic acid] | 42
CCCCC/C=C\C/C=C\C/C=C\CCCCC(=O)O [γ-Linolenic acid] | 70
